Experimental data taken from PubChem BioAssay AID1259407 (Chemical Carcinogenesis Research Information System (CCRIS), 2018).
Active and inactive are the calls of the source. How the calls were made is not given here.

System: CCRIS mutagenicity, Ames/micronucleus/aberration tests
Experiment: CCRIS mutagenicity studies
[1] = Test System: AMES SALMONELLA TYPHIMURIUM, Strain/Indicator: TA98, Metabolic Activation: HAMSTER, LIVER, S-9, AROCLOR 1254 (30%), Method: PREINCUBATION
[2] = Test System: AMES SALMONELLA TYPHIMURIUM, Strain/Indicator: TA98, Metabolic Activation: NONE, Method: PREINCUBATION
[3] = Test System: AMES SALMONELLA TYPHIMURIUM, Strain/Indicator: TA98, Metabolic Activation: RAT, LIVER, S-9, AROCLOR 1254 (30%), Method: PREINCUBATION
[4] = Test System: AMES SALMONELLA TYPHIMURIUM, Strain/Indicator: TA100, Metabolic Activation: NONE, Method: PREINCUBATION
[5] = Test System: AMES SALMONELLA TYPHIMURIUM, Strain/Indicator: TA98, Metabolic Activation: NONE, Method: STANDARD PLATE
[6] = Test System: AMES SALMONELLA TYPHIMURIUM, Strain/Indicator: TA100, Metabolic Activation: NONE, Method: STANDARD PLATE

Cc1cccc(C)c1N
mutagenic call (End Point: IN VITRO CHROMOSOMAL ABERRATIONS, Test System: CHINESE HAMSTER OVARY CELLS, Metabolic Activation: NONE): active; positive; precipitation occurred at all doses | mutagenic call (End Point: IN VITRO CHROMOSOMAL ABERRATIONS, Test System: CHINESE HAMSTER OVARY CELLS, Metabolic Activation: RAT, LIVER, S-9, AROCLOR 1254): active; positive; precipitation occurred at 1200 and 1300 ug/ml | mutagenic call (Test System: AMES SALMONELLA TYPHIMURIUM, Strain/Indicator: TA97, Metabolic Activation: HAMSTER, LIVER, S-9, AROCLOR 1254 (30%), Method: PREINCUBATION): inactive; negative | mutagenic call (Test System: AMES SALMONELLA TYPHIMURIUM, Strain/Indicator: TA97, Metabolic Activation: NONE, Method: PREINCUBATION): inactive; negative | mutagenic call (Test System: AMES SALMONELLA TYPHIMURIUM, Strain/Indicator: TA97, Metabolic Activation: RAT, LIVER, S-9, AROCLOR 1254 (30%), Method: PREINCUBATION): inactive; negative | mutagenic call (Test System: AMES SALMONELLA TYPHIMURIUM, Strain/Indicator: TA98, Metabolic Activation: HAMSTER, LIVER, S-9, AROCLOR 1254 (10%), Method: PREINCUBATION): inactive; negative | mutagenic call [1]: inactive; negative | mutagenic call (Test System: AMES SALMONELLA TYPHIMURIUM, Strain/Indicator: TA98, Metabolic Activation: HAMSTER, LIVER, S-9, AROCLOR 1254, Method: PREINCUBATION): inactive; negative | mutagenic call [2]: inactive; negative | mutagenic call (Test System: AMES SALMONELLA TYPHIMURIUM, Strain/Indicator: TA98, Metabolic Activation: RAT, LIVER, S-9, AROCLOR 1254 (10%), Method: PREINCUBATION): inactive; negative | mutagenic call [3]: inactive; negative | mutagenic call (Test System: AMES SALMONELLA TYPHIMURIUM, Strain/Indicator: TA98, Metabolic Activation: RAT, LIVER, S-9, AROCLOR 1254, Method: PREINCUBATION): inactive; negative | mutagenic call (Test System: AMES SALMONELLA TYPHIMURIUM, Strain/Indicator: TA100, Metabolic Activation: HAMSTER, LIVER, S-9, AROCLOR 1254 (5%), Method: PREINCUBATION): inactive; negative | mutagenic call (Test System: AMES SALMONELLA TYPHIMURIUM, Strain/Indicator: TA100, Metabolic Activation: HAMSTER, LIVER, S-9, AROCLOR 1254 (10%), Method: PREINCUBATION): inactive; negative | mutagenic call (Test System: AMES SALMONELLA TYPHIMURIUM, Strain/Indicator: TA100, Metabolic Activation: HAMSTER, LIVER, S-9, AROCLOR 1254, Method: PREINCUBATION): inactive; negative | mutagenic call [4]: inactive; negative | mutagenic call (Test System: AMES SALMONELLA TYPHIMURIUM, Strain/Indicator: TA100, Metabolic Activation: RAT, LIVER, S-9, AROCLOR 1254 (5 OR 30%), Method: PREINCUBATION): inactive; negative | mutagenic call (Test System: AMES SALMONELLA TYPHIMURIUM, Strain/Indicator: TA100, Metabolic Activation: RAT, LIVER, S-9, AROCLOR 1254 (10%), Method: PREINCUBATION): inactive; negative | mutagenic call (Test System: AMES SALMONELLA TYPHIMURIUM, Strain/Indicator: TA100, Metabolic Activation: RAT, LIVER, S-9, AROCLOR 1254, Method: PREINCUBATION): inactive; negative | mutagenic call (Test System: AMES SALMONELLA TYPHIMURIUM, Strain/Indicator: TA1535, Metabolic Activation: HAMSTER, LIVER, S-9, AROCLOR 1254 (5%), Method: PREINCUBATION): inactive; negative | mutagenic call (Test System: AMES SALMONELLA TYPHIMURIUM, Strain/Indicator: TA1535, Metabolic Activation: HAMSTER, LIVER, S-9, AROCLOR 1254, Method: PREINCUBATION): inactive; negative | mutagenic call (Test System: AMES SALMONELLA TYPHIMURIUM, Strain/Indicator: TA1535, Metabolic Activation: NONE, Method: PREINCUBATION): inactive; negative | mutagenic call (Test System: AMES SALMONELLA TYPHIMURIUM, Strain/Indicator: TA1535, Metabolic Activation: RAT, LIVER, S-9, AROCLOR 1254 (5%), Method: PREINCUBATION): inactive; negative | mutagenic call (Test System: AMES SALMONELLA TYPHIMURIUM, Strain/Indicator: TA1535, Metabolic Activation: RAT, LIVER, S-9, AROCLOR 1254 (10 OR 30%), Method: PREINCUBATION): inactive; negative | mutagenic call (Test System: AMES SALMONELLA TYPHIMURIUM, Strain/Indicator: TA1535, Metabolic Activation: RAT, LIVER, S-9, AROCLOR 1254, Method: PREINCUBATION): inactive; negative | mutagenic call (Test System: AMES SALMONELLA TYPHIMURIUM, Strain/Indicator: TA1537, Metabolic Activation: HAMSTER, LIVER, S-9, AROCLOR 1254 (10%), Method: PREINCUBATION): inactive; negative | mutagenic call (Test System: AMES SALMONELLA TYPHIMURIUM, Strain/Indicator: TA1537, Metabolic Activation: HAMSTER, LIVER, S-9, AROCLOR 1254, Method: PREINCUBATION): inactive; negative | mutagenic call (Test System: AMES SALMONELLA TYPHIMURIUM, Strain/Indicator: TA1537, Metabolic Activation: NONE, Method: PREINCUBATION): inactive; negative | mutagenic call (Test System: AMES SALMONELLA TYPHIMURIUM, Strain/Indicator: TA1537, Metabolic Activation: RAT, LIVER, S-9, AROCLOR 1254 (10%), Method: PREINCUBATION): inactive; negative | mutagenic call (Test System: AMES SALMONELLA TYPHIMURIUM, Strain/Indicator: TA1537, Metabolic Activation: RAT, LIVER, S-9, AROCLOR 1254, Method: PREINCUBATION): inactive; negative

COC1=CC(=O)c2c(nc(C)c3c4c([nH]c23)CCCC4)C1=O
mutagenic call (Test System: AMES SALMONELLA TYPHIMURIUM, Strain/Indicator: TA97A, Metabolic Activation: NONE, Method: STANDARD PLATE): inactive; negative | mutagenic call (Test System: AMES SALMONELLA TYPHIMURIUM, Strain/Indicator: TA97A, Metabolic Activation: RAT LIVER S-9, AROCLOR 1254, Method: STANDARD PLATE): inactive; negative | mutagenic call [5]: active; positive | mutagenic call (Test System: AMES SALMONELLA TYPHIMURIUM, Strain/Indicator: TA98, Metabolic Activation: RAT LIVER S-9, AROCLOR 1254, Method: STANDARD PLATE): active; positive | mutagenic call [6]: inactive; negative | mutagenic call (Test System: AMES SALMONELLA TYPHIMURIUM, Strain/Indicator: TA100, Metabolic Activation: RAT LIVER S-9, AROCLOR 1254, Method: STANDARD PLATE): inactive; negative | mutagenic call (Test System: AMES SALMONELLA TYPHIMURIUM, Strain/Indicator: TA102, Metabolic Activation: NONE, Method: STANDARD PLATE): inactive; negative | mutagenic call (Test System: AMES SALMONELLA TYPHIMURIUM, Strain/Indicator: TA102, Metabolic Activation: RAT LIVER S-9, AROCLOR 1254, Method: STANDARD PLATE): inactive; negative

Clc1cc2c3nc4[n-]c(nc5nc(nc6nc(nc([n-]3)c2c(Cl)c1Cl)-c1c(Cl)c(Cl)c(Cl)c(Cl)c1-6)-c1c(Cl)c(Cl)c(Cl)c(Cl)c1-5)c1c(Cl)c(Cl)c(Cl)c(Cl)c41.[Cu+2]
mutagenic call [1]: active; positive | mutagenic call [2]: inactive; negative | mutagenic call [3]: active; positive | mutagenic call (Test System: AMES SALMONELLA TYPHIMURIUM, Strain/Indicator: TA100, Metabolic Activation: HAMSTER, LIVER, S-9, AROCLOR 1254 (30%), Method: PREINCUBATION): inactive; negative | mutagenic call [4]: inactive; negative | mutagenic call (Test System: AMES SALMONELLA TYPHIMURIUM, Strain/Indicator: TA100, Metabolic Activation: RAT, LIVER, S-9, AROCLOR 1254 (30%), Method: PREINCUBATION): inactive; negative

Clc1ccc2c(c1)oc1ccccc12
mutagenic call [5]: active; positive | mutagenic call (Test System: AMES SALMONELLA TYPHIMURIUM, Strain/Indicator: TA98, Metabolic Activation: RAT, LIVER, S-9, PHENOBARBITAL AND NAPHTHOFLAVONE, Method: STANDARD PLATE): active; positive | mutagenic call [6]: active; positive | mutagenic call (Test System: AMES SALMONELLA TYPHIMURIUM, Strain/Indicator: TA100, Metabolic Activation: RAT, LIVER, S-9, PHENOBARBITAL AND NAPHTHOFLAVONE, Method: STANDARD PLATE): active; positive
